Results on 28 compounds are retold here after patent US7704995B2 (Exelixis, Inc., priority 2003, dated 2010).

The experiment has as its target T1, Chk1 (Homo sapiens, UniProt O14757).
T1 construct: purchased Upstate Biotechnology
T1 sequence (O14757 1-476): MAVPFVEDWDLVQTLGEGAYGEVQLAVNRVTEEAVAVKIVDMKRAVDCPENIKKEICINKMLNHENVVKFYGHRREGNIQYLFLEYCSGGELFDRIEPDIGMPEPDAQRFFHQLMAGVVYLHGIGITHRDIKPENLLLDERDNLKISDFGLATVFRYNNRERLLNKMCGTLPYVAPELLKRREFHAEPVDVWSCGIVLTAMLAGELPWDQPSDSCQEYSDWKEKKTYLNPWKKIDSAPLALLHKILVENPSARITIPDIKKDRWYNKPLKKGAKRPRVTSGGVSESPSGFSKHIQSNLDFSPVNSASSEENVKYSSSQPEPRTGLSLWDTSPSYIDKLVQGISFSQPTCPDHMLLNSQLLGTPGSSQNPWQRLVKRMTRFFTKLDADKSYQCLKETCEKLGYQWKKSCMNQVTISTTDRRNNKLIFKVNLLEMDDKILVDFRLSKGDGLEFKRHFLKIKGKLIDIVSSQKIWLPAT
Description: Chk1 kinase assay: incorporation of γ-33P ATP into immobilized myelin basic protein. The note with it: Table 11, Chk1 only; class symbols A-D; read-out: Chk1 IC50. The class given is biochemical. The method in brief: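 Radiometric filter-free format: Chk1 10 nM, 10 μM ATP; Chk2 20 nM, 30 μM ATP; γ-33P ATP tracer; immobilized MBP substrate; Hepes pH 7.6, 10 mM MgCl2, 1 mM DTT; 1 h RT; 1% DMSO. Scintillation counting of washed plates. IC50/Ki from curve fit.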
For `CN1CCCC(c2n[nH]c(-c3nc(-c4cccc(C(=O)NCc5c(F)cccc5Cl)c4)cnc3N)n2)C1` (stereo not shown) [Example 818, 3-{5-amino-6-[3-(1-methylpiperidin-3-yl)-1H-1,2,4-triazol-5-yl]pyrazin-2-yl}-N-[(2-chloro-6-fluorophenyl)methyl]benzamide], the 50% inhibitory concentration (IC50) – broadly, the concentration that gives 50% inhibition – fell in the range of 1000 to 10000 nM.
With `Nc1ncc(-c2cccc(CN[C@H]3CCc4ccccc43)c2)nc1C(=O)NC1CN2CCC1CC2` (stereo partly drawn) [Example 819, 3-amino-N-1-azabicyclo[2.2.2]oct-3-yl-6-(3-{[(1S)-2,3-dihydro-1H-inden-1-ylamino]methyl}phenyl)pyrazine-2-carboxamide], the IC50 fell in the range of 50 to 1000 nM.
As to `Nc1ncc(-c2cccc(C(=O)NCc3ccc(Cl)cc3F)c2)nc1-c1nc([C@H]2CCCNC2)n[nH]1` [Example 820, 3-(5-amino-6-{3-[(3S)-piperidin-3-yl]-1H-1,2,4-triazol-5-yl}pyrazin-2-yl)-N-[(4-chloro-2-fluorophenyl)methyl]benzamide], the IC50 was below 50 nM.
As to `Nc1ncc(-c2cccc(C(=O)NCc3ccccc3Cl)c2)nc1-c1nc([C@H]2CCCNC2)n[nH]1` [Example 821, 3-(5-amino-6-{3-[(3S)-piperidin-3-yl]-1H-1,2,4-triazol-5-yl}pyrazin-2-yl)-N-[(2-chlorophenyl)methyl]benzamide], the 50% inhibitory concentration (IC50) was below 50 nM.
For `CC(C)(C)OC(=O)N1CC[C@H](NC(=O)c2nc(-c3cccc(C(=O)NCc4ccc(Cl)cc4Cl)c3)cnc2N)C1` [Example 822, 1,1-dimethylethyl (3S)-3-[({3-amino-6-[3-({[(2,4-dichlorophenyl)methyl]amino}carbonyl)phenyl]pyrazin-2-yl}carbonyl)amino]pyrrolidine-1-carboxylate] the value was 1000 to 10000 nM.
In the case of `CC(C)(C)OC(=O)N1CC[C@H](NC(=O)c2nc(-c3cccc(C(=O)NCc4ccc(Cl)c(Cl)c4)c3)cnc2N)C1` [Example 823, 1,1-dimethylethyl (3S)-3-[({3-amino-6-[3-({[(3,4-dichlorophenyl)methyl]amino}carbonyl)phenyl]pyrazin-2-yl}carbonyl)amino]pyrrolidine-1-carboxylate] it was 1000 to 10000 nM; in that of `Nc1ncc(-c2cccc(CN[C@H]3CCc4ccccc43)c2)nc1-c1nc(C2CCCNC2)cs1` (stereo partly drawn) [Example 824, 5-(3-{[(1S)-2,3-dihydro-1H-inden-1-ylamino]methyl}phenyl)-3-(4-piperidin-3-yl-1,3-thiazol-2-yl)pyrazin-2-amine], at least 10000 nM; in that of `Nc1ncc(-c2cccc(C(=O)NCc3ccc(Cl)cc3Cl)c2)nc1C(=O)N[C@H]1CCNC1` [Example 825, 3-amino-6-[3-({[(2,4-dichlorophenyl)methyl]amino}carbonyl)phenyl]-N-[(3S)-pyrrolidin-3-yl]pyrazine-2-carboxamide], below 50 nM.
For `Nc1ncc(-c2cccc(C(=O)NCc3ccc(Cl)c(Cl)c3)c2)nc1C(=O)N[C@H]1CCNC1` [Example 826, 3-amino-6-[3-({[(3,4-dichlorophenyl)methyl]amino}carbonyl)phenyl]-N-[(3S)-pyrrolidin-3-yl]pyrazine-2-carboxamide] the value was below 50 nM; for `Nc1ncc(-c2cccc(C(=O)NCc3c(F)cccc3F)c2)nc1-c1nc([C@H]2CCCNC2)n[nH]1` [Example 827, 3-(5-amino-6-{3-[(3S)-piperidin-3-yl]-1H-1,2,4-triazol-5-yl}pyrazin-2-yl)-N-[(2,6-difluorophenyl)methyl]benzamide], 50 to 1000 nM.
Turning to `Nc1ncc(-c2cccc(C(=O)NCc3c(F)cccc3Cl)c2)nc1-c1nc([C@H]2CCCNC2)n[nH]1` [Example 828, 3-(5-amino-6-{3-[(3S)-piperidin-3-yl]-1H-1,2,4-triazol-5-yl}pyrazin-2-yl)-N-[(2-chloro-6-fluorophenyl)methyl]benzamide], the IC50 was 50 to 1000 nM.
Take `Nc1ncc(-c2cccc(C(=O)NCc3cc(Cl)ccc3Cl)c2)nc1-c1nc([C@H]2CCCNC2)n[nH]1` [Example 829, 3-(5-amino-6-{3-[(3S)-piperidin-3-yl]-1H-1,2,4-triazol-5-yl}pyrazin-2-yl)-N-[(2,5-dichlorophenyl)methyl]benzamide]: the IC50 was in the range of 50 to 1000 nM.
In the case of `Nc1ncc(-c2cccc(C(=O)NCc3ccc(Cl)c(Cl)c3)c2)nc1-c1nc([C@H]2CCCNC2)n[nH]1` [Example 830, 3-(5-amino-6-{3-[(3S)-piperidin-3-yl]-1H-1,2,4-triazol-5-yl}pyrazin-2-yl)-N-[(3,4-dichlorophenyl)methyl]benzamide] it was below 50 nM; in that of `COc1ccc(CNC(=O)c2cccc(-c3cnc(N)c(C(=O)N[C@H]4CCCNC4)n3)c2)cc1` [Example 831, 3-amino-6-{3-[({[4-(methyloxy)phenyl]methyl}amino)carbonyl]phenyl}-N-[(3S)-piperidin-3-yl]pyrazine-2-carboxamide], below 50 nM; in that of `Nc1ncc(-c2cccc(C(=O)NCc3ccc(Cl)cc3Cl)c2)nc1C(=O)N[C@H]1CCCNC1` [Example 832, 3-amino-6-[3-({[(2,4-dichlorophenyl)methyl]amino}carbonyl)phenyl]-N-[(3S)-piperidin-3-yl]pyrazine-2-carboxamide], below 50 nM.
As to `CC(C)(C)OC(=O)NCc1cccc(-c2cnc(N)c(C(=O)N[C@H]3CCCN(C(=O)OC(C)(C)C)C3)n2)c1` [Example 833, 1,1-dimethylethyl (3S)-3-{[(3-amino-6-{3-[({[(1,1-dimethylethyl)oxy]carbonyl}amino)methyl]phenyl}pyrazin-2-yl)carbonyl]amino}piperidine-1-carboxylate], the IC50 was 50 to 1000 nM.
Take `Nc1ncc(-c2cccc(C(=O)NCc3ccccc3F)c2)nc1-c1nnc([C@H]2CCCNC2)[nH]1` [Example 834, 3-(5-amino-6-{5-[(3S)-piperidin-3-yl]-4H-1,2,4-triazol-3-yl}pyrazin-2-yl)-N-[(2-fluorophenyl)methyl]benzamide]: the IC50 is below 50 nM.
`Nc1ncc(-c2cccc(C(=O)NCc3cccc(F)c3)c2)nc1-c1nnc([C@H]2CCCNC2)[nH]1` [Example 835, 3-(5-amino-6-{5-[(3S)-piperidin-3-yl]-4H-1,2,4-triazol-3-yl}pyrazin-2-yl)-N-[(3-fluorophenyl)methyl]benzamide]: the IC50 was below 50 nM.
`Nc1ncc(-c2cccc(C(=O)NCc3ccc(F)cc3)c2)nc1-c1nnc([C@H]2CCCNC2)[nH]1` [Example 836, 3-(5-amino-6-{5-[(3S)-piperidin-3-yl]-4H-1,2,4-triazol-3-yl}pyrazin-2-yl)-N-[(4-fluorophenyl)methyl]benzamide]: the 50% inhibitory concentration (IC50) is below 50 nM.
In the case of `Nc1ncc(-c2cccc(C(=O)NCc3cccc(Cl)c3)c2)nc1-c1nnc([C@H]2CCCNC2)[nH]1` [Example 837, 3-(5-amino-6-{5-[(3S)-piperidin-3-yl]-4H-1,2,4-triazol-3-yl}pyrazin-2-yl)-N-[(3-chlorophenyl)methyl]benzamide], the IC50 was below 50 nM.
As to `Nc1ncc(-c2cccc(C(=O)NCc3ccc(Cl)cc3)c2)nc1-c1nnc([C@H]2CCCNC2)[nH]1` [Example 838, 3-(5-amino-6-{5-[(3S)-piperidin-3-yl]-4H-1,2,4-triazol-3-yl}pyrazin-2-yl)-N-[(4-chlorophenyl)methyl]benzamide], the half-maximal inhibitory concentration (IC50) was below 50 nM.
Regarding `NCc1cccc(-c2cnc(N)c(C(=O)N[C@H]3CCCNC3)n2)c1` [Example 839, 3-amino-6-[3-(aminomethyl)phenyl]-N-[(3S)-piperidin-3-yl]pyrazine-2-carboxamide], the half-maximal inhibitory concentration (IC50) is below 50 nM.
In the case of `Nc1ncc(-c2cccc(O)c2)nc1C(=O)N[C@H]1CCCNC1` [Example 840, 3-amino-6-(3-hydroxyphenyl)-N-[(3S)-piperidin-3-yl]pyrazine-2-carboxamide] it was below 50 nM.
In the case of `CC(C)(C)OC(=O)N1CCC[C@H](NC(=O)c2nc(-c3cccc(CN)c3)cnc2N)C1` [Example 841, 1,1-dimethylethyl (3S)-3-[({3-amino-6-[3-(aminomethyl)phenyl]pyrazin-2-yl}carbonyl)amino]piperidine-1-carboxylate], the concentration for half-maximal inhibition (IC50) is 50 to 1000 nM.
On to `Nc1ncc(-c2cccc(C(=O)NCc3ccc(F)cc3)c2)nc1C(=O)N[C@H]1CCCNC1` [Example 842, 3-amino-6-[3-({[(4-fluorophenyl)methyl]amino}carbonyl)phenyl]-N-[(3S)-piperidin-3-yl]pyrazine-2-carboxamide], for which the half-maximal inhibitory concentration (IC50) is below 50 nM.
For `Nc1ncc(-c2cccc(C(=O)NCc3ccc(OC(F)(F)F)cc3)c2)nc1C(=O)N[C@H]1CCCNC1` [Example 843, 3-amino-N-[(3S)-piperidin-3-yl]-6-(3-{[({4-[(trifluoromethyl)oxy]phenyl}methyl)amino]carbonyl}phenyl)pyrazine-2-carboxamide] the value was below 50 nM; for `Nc1ncc(-c2cccc(C(=O)NCc3ccc(-c4ccccc4)cc3)c2)nc1C(=O)N[C@H]1CCCNC1` [Example 844, 3-amino-6-(3-{[(biphenyl-4-ylmethyl)amino]carbonyl}phenyl)-N-[(3S)-piperidin-3-yl]pyrazine-2-carboxamide], below 50 nM.
Regarding `Nc1ncc(-c2cccc(C(=O)NCc3ccc(-c4cnns4)cc3)c2)nc1C(=O)N[C@H]1CCCNC1` [Example 845, 3-amino-N-[(3S)-piperidin-3-yl]-6-{3-[({[4-(1,2,3-thiadiazol-5-yl)phenyl]methyl}amino)carbonyl]phenyl}pyrazine-2-carboxamide], the 50% inhibitory concentration (IC50) is below 50 nM.
